Data reported in patent US8168592B2 (Amgen Inc., priority 2005, dated 2012).
Square brackets hold non-standard residues; d marks the D form. Peptide text beside a SMILES is read from it. Oic = O=C(O)[C@@H]1C[C@@H]2CCCC[C@@H]2N1; 2Nal = N[C@@H](Cc1ccc2ccccc2c1)C(=O)O; hArg = N=C(N)NCCCC[C@H](N)C(=O)O; Cit = NC(=O)NCCC[C@H](N)C(=O)O; Nle = CCCC[C@H](N)C(=O)O

Target: T1, CGRP1 receptor (Homo sapiens, UniProt O60894+Q16602)
T1 construct: SK-N-MC cells express CRLR and RAMP1, which form CGRP1 receptor; endogenous in cells; host or cells: SK-N-MC human neuroblastoma cells
T1 sequence (Q16602 23-461): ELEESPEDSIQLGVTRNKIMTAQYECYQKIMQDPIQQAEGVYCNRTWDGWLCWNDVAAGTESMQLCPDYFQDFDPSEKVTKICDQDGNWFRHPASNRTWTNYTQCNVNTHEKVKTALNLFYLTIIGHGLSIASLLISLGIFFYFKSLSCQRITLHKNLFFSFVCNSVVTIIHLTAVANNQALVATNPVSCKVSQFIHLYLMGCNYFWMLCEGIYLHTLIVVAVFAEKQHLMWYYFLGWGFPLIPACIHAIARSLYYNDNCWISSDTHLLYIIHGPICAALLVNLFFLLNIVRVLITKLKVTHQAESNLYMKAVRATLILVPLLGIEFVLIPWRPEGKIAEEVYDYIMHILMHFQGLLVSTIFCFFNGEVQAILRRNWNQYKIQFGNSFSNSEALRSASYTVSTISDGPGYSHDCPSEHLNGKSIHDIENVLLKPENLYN
T1 sequence (O60894 27-148): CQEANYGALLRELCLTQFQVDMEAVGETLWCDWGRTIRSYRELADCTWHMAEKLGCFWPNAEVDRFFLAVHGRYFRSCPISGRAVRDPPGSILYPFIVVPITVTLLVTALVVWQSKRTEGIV
Experiment: in vitro CGRP1 receptor mediated cAMP assay in SK-N-MC cells
Assay type: cell-based
Settings: not given
Outline: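 Intracellular cAMP served as the Gs-coupled CGRP1 readout in endogenously expressing SK-N-MC cells. After a 15-minute room-temperature step in plasma-free medium, cell lysates (30 minutes, 37° C) went into a competitive ELISA with a cAMP-AP conjugate and anti-cAMP antibody for 1 hour, then a 30-minute substrate enhancer step before reading.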

| Molecule | antagonist activity in cAMP assay, in words |
| --- | --- |
| SEQ ID NO:35 (Ac-WVTHRLAGLLSQSGGVVRCNFVPTDVGPFAF-NH2) | well tolerated |
| SEQ ID NO:33 (Ac-WVTHRLAGLLSASGGVVRCNFVPTDVGPFAF-NH2) | not well tolerated |
| SEQ ID NO:26 (WVTHXLAGLLSXSGGVVRKNFVPTDVGPFAF; CGRP peptide; MOD_RES (1)..(1): …ON; MISC_FEATURE (5)..(5): xaa=homoarginine; MISC_FEATURE (12)..(12): xaa=homoarginine; MISC_FEATURE (19)..(19): PEGylated; MOD_RES (31)..(31): AMIDATION) | antagonist activity returned to the levels of the two peptides with single substitutions |

Same assay, conditions: Table 2A; read-out: IC50

| Molecule | IC50 [nM] |
| --- | --- |
| CC(=O)N[C@@H](Cc1c[nH]c2ccccc12)C(=O)N[C@H](C(=O)N[C@H](C(=O)N[C@@H](Cc1c[nH]cn1)C(=O)N[C@@H](CCCNC(N)=O)C(=O)N[C@@H](CC(C)C)C(=O)N[C@@H](C)C(=O)NCC(=O)N[C@@H](CC(C)C)C(=O)N[C@@H](CC(C)C)C(=O)N[C@@H](CO)C(=O)N[C@@H](CCCNC(N)=O)C(=O)N[C@@H](CO)C(=O)NCC(=O)NCC(=O)N[C@H](C(=O)N[C@H](C(=O)N[C@@H](CCCCNC(=N)N)C(=O)N[C@@H](CCCCN)C(=O)N[C@@H](CC(N)=O)C(=O)N[C@@H](Cc1ccccc1)C(=O)N[C@H](C(=O)N1CCC[C@H]1C(=O)N[C@H](C(=O)N[C@@H](CC(=O)O)C(=O)N[C@H](C(=O)NCC(=O)N1[C@H](C(=O)N[C@@H](Cc2ccccc2)C(=O)N[C@@H](C)C(N)=O)C[C@@H]2CCCC[C@@H]21)C(C)C)[C@@H](C)O)C(C)C)C(C)C)C(C)C)[C@@H](C)O)C(C)C [compound 659] (Ac-WVTH[Cit]LAGLLS[Cit]SGGVV[hArg]KNFVPTDVG[Oic]FA-NH2) | > 1000 |
| CC(=O)N[C@@H](Cc1c[nH]c2ccccc12)C(=O)N[C@H](C(=O)N[C@H](C(=O)N[C@@H](Cc1c[nH]cn1)C(=O)N[C@@H](CCCNC(N)=O)C(=O)N[C@@H](CC(C)C)C(=O)N[C@@H](C)C(=O)NCC(=O)N[C@@H](CC(C)C)C(=O)N[C@@H](CC(C)C)C(=O)N[C@@H](CO)C(=O)N[C@@H](CCCNC(N)=O)C(=O)N[C@@H](CO)C(=O)NCC(=O)NCC(=O)N[C@H](C(=O)N[C@H](C(=O)N[C@@H](CCCCNC(=N)N)C(=O)N[C@@H](CCCCN)C(=O)N[C@@H](CC(N)=O)C(=O)N[C@@H](Cc1ccccc1)C(=O)N[C@H](C(=O)N1[C@H](C(=O)N[C@H](C(=O)N[C@@H](CC(=O)O)C(=O)N[C@H](C(=O)NCC(=O)N2CCC[C@H]2C(=O)N[C@@H](Cc2ccccc2)C(=O)N[C@@H](C)C(=O)N[C@@H](Cc2ccc3ccccc3c2)C(N)=O)C(C)C)[C@@H](C)O)C[C@@H]2CCCC[C@@H]21)C(C)C)C(C)C)C(C)C)[C@@H](C)O)C(C)C [compound 135] (Ac-WVTH[Cit]LAGLLS[Cit]SGGVV[hArg]KNFV[Oic]TDVGPFA[2Nal]-NH2) | 3.22 |
| CC(=O)N[C@@H](Cc1c[nH]c2ccccc12)C(=O)N[C@H](C(=O)N[C@H](C(=O)N[C@@H](Cc1cnc[nH]1)C(=O)N[C@@H](CCCNC(N)=O)C(=O)N[C@@H](CC(C)C)C(=O)N[C@@H](C)C(=O)NCC(=O)N[C@@H](CC(C)C)C(=O)N[C@@H](CC(C)C)C(=O)N[C@@H](CO)C(=O)N[C@@H](CCCNC(N)=O)C(=O)N[C@@H](CO)C(=O)NCC(=O)NCC(=O)N[C@H](C(=O)N[C@H](C(=O)N[C@@H](CCCCNC(=N)N)C(=O)N[C@@H](CCCCN)C(=O)N[C@@H](CC(N)=O)C(=O)N[C@@H](Cc1ccccc1)C(=O)N[C@H](C(=O)N1CCC[C@H]1C(=O)N[C@H](C(=O)N[C@@H](CC(=O)O)C(=O)N[C@H](C(=O)NCC(=O)N(C)CC(=O)N[C@@H](Cc1ccccc1)C(=O)N[C@@H](C)C(=O)N[C@@H](Cc1ccccc1)C(N)=O)C(C)C)[C@@H](C)O)C(C)C)C(C)C)C(C)C)[C@@H](C)O)C(C)C [compound 672] | 3.19 to 4.42 |
| CC(=O)N[C@@H](CCCCN)C(=O)N[C@@H](Cc1c[nH]c2ccccc12)C(=O)N[C@H](C(=O)N[C@H](C(=O)N[C@@H](Cc1c[nH]cn1)C(=O)N[C@@H](CCCNC(N)=O)C(=O)N[C@@H](CC(C)C)C(=O)N[C@@H](C)C(=O)NCC(=O)N[C@@H](CC(C)C)C(=O)N[C@@H](CC(C)C)C(=O)N[C@@H](CO)C(=O)N[C@@H](CCCNC(N)=O)C(=O)N[C@@H](CO)C(=O)NCC(=O)NCC(=O)N[C@H](C(=O)N[C@H](C(=O)N[C@@H](CCCNC(=N)N)C(=O)N[C@@H](CCCCN)C(=O)N[C@@H](CC(N)=O)C(=O)N[C@@H](Cc1ccccc1)C(=O)N[C@H](C(=O)N1CCC[C@H]1C(=O)N[C@H](C(=O)N[C@@H](CC(=O)O)C(=O)N[C@H](C(=O)NCC(=O)N1CCC[C@H]1C(=O)N[C@@H](CCCCN)C(=O)N[C@@H](C)C(=O)N[C@@H](Cc1ccccc1)C(N)=O)C(C)C)[C@@H](C)O)C(C)C)C(C)C)C(C)C)[C@@H](C)O)C(C)C [compound 128] (Ac-KWVTH[Cit]LAGLLS[Cit]SGGVVRKNFVPTDVGPKAF-NH2) | 13 |
| CC(=O)N[C@@H](Cc1c[nH]c2ccccc12)C(=O)N[C@H](C(=O)N[C@H](C(=O)N[C@@H](Cc1c[nH]cn1)C(=O)N[C@@H](CCCNC(N)=O)C(=O)N[C@@H](CC(C)C)C(=O)N[C@@H](C)C(=O)NCC(=O)N[C@@H](CC(C)C)C(=O)N[C@@H](CC(C)C)C(=O)N[C@@H](CO)C(=O)N[C@@H](CCCNC(N)=O)C(=O)N[C@@H](CO)C(=O)NCC(=O)NCC(=O)N[C@H](C(=O)N[C@H](C(=O)N[C@@H](CCCCNC(=N)N)C(=O)N[C@@H](CCCCN)C(=O)N[C@@H](CC(N)=O)C(=O)N[C@@H](Cc1ccccc1)C(=O)N[C@H](C(=O)N1CCC[C@H]1C(=O)N[C@H](C(=O)N[C@@H](CC(=O)O)C(=O)N[C@H](C(=O)NCC(=O)N1CCC[C@H]1C(N)=O)C(C)C)[C@@H](C)O)C(C)C)C(C)C)C(C)C)[C@@H](C)O)C(C)C [compound 656] (Ac-WVTH[Cit]LAGLLS[Cit]SGGVV[hArg]KNFVPTDVGP-NH2) | > 1000 |

Same assay, conditions: Table 2C; unconjugated peptide; read-out: Peptide IC50

| Molecule | IC50 [nM] |
| --- | --- |
| CCCC[C@H](NC(=O)[C@@H](NC(=O)CNC(=O)CNC(=O)[C@H](CO)NC(=O)[C@H](CCCNC(N)=O)NC(=O)[C@H](CO)NC(=O)[C@H](CC(C)C)NC(=O)[C@H](CC(C)C)NC(=O)CNC(=O)[C@H](C)NC(=O)[C@H](CC(C)C)NC(=O)[C@H](CCCNC(N)=O)NC(=O)[C@H](Cc1c[nH]cn1)NC(=O)[C@@H](NC(=O)[C@@H](NC(=O)[C@H](Cc1c[nH]c2ccccc12)NC(C)=O)C(C)C)[C@@H](C)O)C(C)C)C(=O)N[C@@H](CCCNC(=N)N)C(=O)N[C@@H](CCCCN)C(=O)N[C@@H](CC(N)=O)C(=O)N[C@@H](Cc1ccccc1)C(=O)N[C@H](C(=O)N1CCC[C@H]1C(=O)N[C@H](C(=O)N[C@@H](CC(=O)O)C(=O)N[C@H](C(=O)NCC(=O)N1CCC[C@H]1C(=O)N[C@@H](Cc1ccccc1)C(=O)N[C@@H](C)C(=O)N[C@@H](Cc1ccccc1)C(N)=O)C(C)C)[C@@H](C)O)C(C)C [compound 940] (Ac-WVTH[Cit]LAGLLS[Cit]SGGV[Nle]RKNFVPTDVGPFAF-NH2) | 1.85 |
| CC(=O)N[C@@H](Cc1c[nH]c2ccccc12)C(=O)N[C@H](C(=O)N[C@H](C(=O)N[C@@H](Cc1c[nH]cn1)C(=O)N[C@@H](CCCNC(N)=O)C(=O)N[C@@H](CC(C)C)C(=O)N[C@@H](C)C(=O)NCC(=O)N[C@@H](CC(C)C)C(=O)N[C@@H](CC(C)C)C(=O)N[C@@H](CO)C(=O)N[C@@H](CCCNC(N)=O)C(=O)N[C@@H](CO)C(=O)NCC(=O)NCC(=O)N[C@H](C(=O)N[C@H](C(=O)N[C@@H](CCCNC(=N)N)C(=O)N[C@@H](CCCCN)C(=O)N[C@@H](CC(N)=O)C(=O)N[C@@H](Cc1ccccc1)C(=O)N[C@H](C(=O)N1CCC[C@H]1C(=O)N[C@H](C(=O)N[C@@H](CC(=O)O)C(=O)N[C@H](C(=O)NCC(=O)N1[C@H](C(=O)N[C@@H](Cc2ccccc2)C(=O)N[C@@H](C)C(=O)N[C@@H](Cc2ccccc2)C(N)=O)C[C@@H]2CCCC[C@@H]21)C(C)C)[C@@H](C)O)C(C)C)C(C)C)C(C)C)[C@@H](C)O)C(C)C [compound 920] (Ac-WVTH[Cit]LAGLLS[Cit]SGGVVRKNFVPTDVG[Oic]FAF-NH2) | 0.85 |
| CC(=O)N[C@@H](Cc1cccc2ccccc12)C(=O)N[C@H](C(=O)N[C@@H](CCC(=O)O)C(=O)N[C@@H](Cc1c[nH]cn1)C(=O)N[C@@H](CCCCNC(=N)N)C(=O)N[C@@H](CC(C)C)C(=O)N[C@@H](CCCCN)C(=O)NCC(=O)N[C@@H](CC(C)C)C(=O)N[C@@H](CC(C)C)C(=O)N[C@@H](CO)C(=O)N[C@@H](CCCNC(N)=O)C(=O)N[C@@H](CO)C(=O)NCC(=O)N1CC[C@H]1C(=O)N[C@H](C(=O)N[C@H](C(=O)N[C@@H](CCCCNC(=N)N)C(=O)N[C@@H](CCCCN)C(=O)N[C@@H](CC(N)=O)C(=O)N[C@@H](Cc1ccccc1)C(=O)N[C@H](C(=O)N1CCC[C@H]1C(=O)N[C@H](C(=O)N[C@@H](CC(=O)O)C(=O)N[C@H](C(=O)NCC(=O)N1CCC[C@H]1C(=O)N[C@@H](Cc1ccccc1)C(=O)N[C@@H](C)C(=O)N[C@@H](Cc1ccccc1)C(N)=O)C(C)C)[C@@H](C)O)C(C)C)C(C)C)C(C)C)C(C)C [compound 910] | 2.31 |
| CC(=O)N[C@@H](Cc1c[nH]c2ccccc12)C(=O)N[C@H](C(=O)N[C@H](C(=O)N[C@@H](Cc1c[nH]cn1)C(=O)N[C@@H](CCCNC(N)=O)C(=O)N[C@@H](CC(C)C)C(=O)N[C@@H](C)C(=O)NCC(=O)N[C@@H](CC(C)C)C(=O)N[C@@H](CC(C)C)C(=O)N[C@H](CO)C(=O)N[C@@H](CCCNC(N)=O)C(=O)N[C@@H](CO)C(=O)NCC(=O)NCC(=O)N[C@H](C(=O)N[C@H](C(=O)N[C@@H](CCCCNC(=N)N)C(=O)N[C@@H](CCCCN)C(=O)N[C@@H](CC(N)=O)C(=O)N[C@@H](Cc1ccc2ccccc2c1)C(=O)N[C@H](C(=O)N1CCC[C@H]1C(=O)N[C@H](C(=O)N[C@@H](CC(=O)O)C(=O)N[C@H](C(=O)NCC(=O)N1[C@H](C(=O)N[C@@H](Cc2ccccc2)C(=O)N[C@@H](C)C(=O)N[C@@H](Cc2ccccc2)C(N)=O)C[C@@H]2CCCC[C@@H]21)C(C)C)[C@@H](C)O)C(C)C)C(C)C)C(C)C)[C@@H](C)O)C(C)C [compound 953] (Ac-WVTH[Cit]LAGLL[dS][Cit]SGGVV[hArg]KN[2Nal]VPTDVG[Oic]FAF-NH2) | 2.66 |
| Ac-WVTHRLAGLLSRPGGVVRKNFVPTDVGPFAF-NH2 [compound 860] | 1.42 |
